Data set [1] relates to HIV-1. Put plainly: HIV virus inhibition, p24 in supernatant by ELISA. In kind it is cell-based. The note with it: for EC50: Human immunodeficiency virus 1, HIV-1, p24 ELISA of supernatant. The protocol:
(§1) Several additional compounds were also tested for HIV virus inhibition, and the results are show in Table 5. P24 concentration in the supernatant was measured using a commercial ELISA assay. Toxicity was assessed by counting live cells (trypan blue exclusion)
For orientation: ELISA stands for enzyme-linked immunosorbent assay.

Data set [2] concerns Hepatitis B Virus (HBV). Put plainly: Anti-HBV assay, real-time qPCR of extracellular HBV DNA in HepG2 2.2.15. The format is cell-based. Here is the method: The anti-HBV assay employed real-time qPCR (TaqMan) to directly measure extracellular HBV DNA copy number. HepG2-2.2.15 cells were plated in 96-well microtiter plates. Only the interior wells were utilized to reduce “edge effects” observed during cell culture; the exterior wells were filled with complete medium to help minimize sample evaporation. After 16-24 hours the confluent monolayer of HepG2-2.2.15 cells was washed and the medium replaced with complete medium containing various concentrations of a test compound in triplicate. 3TC was used as positive control, while media alone was added to cells as negative control (virus control, VC). Three days later the culture medium was replaced with fresh medium containing the appropriately diluted drug. Six days following the initial administration of the test compound, the cell culture supernatant collected, treated with pronase and then used in a real-time quantitative TaqMan qPCR assay. The PCR-amplified HBV DNA was detected in real-time by monitoring increases in fluorescence signals that result from the exonucleolytic degradation of a quenched fluorescent probe molecule that hybridizes to the amplified HBV DNA. For each PCR amplification, a standard curve was simultaneously generated using dilutions of purified HBV DNA. Antiviral activity was calculated from the reduction in HBV DNA levels (IC50). CellTiter 96® AQueous One Solution Cell Proliferation Assay kit (Promega) was employed to measure cell viability which was used to calculate cytotoxicity (TC50). The therapeutic index (TI) was calculated as TC50/IC50.
(Real-time PCR tracks product formation cycle by cycle.)

The nature of data set [3]: Cell viability (CellTiter 96 AQueous One) in HepG2 2.2.15. The format is cell-based. The note with it: human, HepG2-2.2.15 cells, read-out: Cytotoxicity TC50. Here is the method:
The anti-HBV assay employed real-time qPCR (TaqMan) to directly measure extracellular HBV DNA copy number. HepG2-2.2.15 cells were plated in 96-well microtiter plates. Only the interior wells were utilized to reduce “edge effects” observed during cell culture; the exterior wells were filled with complete medium to help minimize sample evaporation. After 16-24 hours the confluent monolayer of HepG2-2.2.15 cells was washed and the medium replaced with complete medium containing various concentrations of a test compound in triplicate. 3TC was used as positive control, while media alone was added to cells as negative control (virus control, VC). Three days later the culture medium was replaced with fresh medium containing the appropriately diluted drug. Six days following the initial administration of the test compound, the cell culture supernatant collected, treated with pronase and then used in a real-time quantitative TaqMan qPCR assay. The PCR-amplified HBV DNA was detected in real-time by monitoring increases in fluorescence signals that result from the exonucleolytic degradation of a quenched fluorescent probe molecule that hybridizes to the amplified HBV DNA. […] Antiviral activity was calculated from the reduction in HBV DNA levels (IC50). […] The therapeutic index (TI) was calculated as TC50/IC50.

The nature of data set [4]: Toxicity by counting live cells (trypan blue exclusion). In kind it is cell-based. The note with it: live cell count, read-out: Cytotoxicity TC50. The protocol:
as §1

Data set [5] deals with integration. The note with it: Vozzolo et al., J. Biol. Chem. 2010; cited from earlier work.
Data set [6] concerns HIV reactivation. The note with it: Anderson et al., PNAS 2014; cited from earlier work.

A value given as a limit tells only on which side of the number the result lay.

One may read the EC50 as the concentration at which the effect is half-maximal. Low readings indicate greater potency, high ones weaker potency. A word on the IC50: it is the concentration at which inhibition is half-maximal.

As to `CCOCCCNc1cc(-n2nc(C)c3c2CC(C)(C)CC3=O)ccc1C(N)=O` [Compound 8, 2-((3-ethoxypropyl)amino)-4-(3,6,6-trimethyl-4-oxo-4,5,6,7-tetrahydro-1H-indazol-1-yl)benzamide], it took 42 nM to reach a half-maximal effect in data set [1] (EC50).

As for `Nc1ccn([C@@H]2CS[C@H](CO)O2)c(=O)n1` [Compound 3TC, 2′,3′-dideoxy-3′-thiacytidine, reference compound], the “Selectivity Index TI (TC50/IC50)” value in data set [2] (HBV in HepG2 2.2.15) was >14.0. For the same compound, in data set [2] (Hepatitis B virus, 144 h, HBV in HepG2 2.2.15, six days, read-out: Antiviral Activity IC50 (reduction in HBV DNA levels)), the IC50 was 35.6 nM. Besides, in data set [3], the CC50 at 6 days is > 500 nM.

Turning to `CCOCCNc1cc(-n2nc(C)c3c2CC(C)(C)CC3=O)ccc1C(N)=O` [Compound 4, 2-((2-ethoxyethyl)amino)-4-(3,6,6-trimethyl-4-oxo-4,5,6,7-tetrahydro-1H-indazol-1-yl)benzamide], in data set [1], the “Selectivity Index TI (TC50/EC50)” value is reported as 24 and the midpoint of the response, the EC50, lay at 89 nM. Moreover, in data set [4], the CC50 worked out at 2170 nM.

Turning to `Cc1nn(-c2ccc(C(N)=O)c(NCCO)c2)c2c1C(=O)CC(C)(C)C2` [Compound 2, 2-((2-hydroxyethyl)amino)-4-(3,6,6-trimethyl-4-oxo-4,5,6,7-tetrahydro-1H-indazol-1-yl)benzamide], in data set [1], the “Selectivity Index TI (TC50/EC50)” value is reported as 12 and the EC50 came out at 52 nM. In data set [4], the CC50 came to 617 nM.

With `COCCNc1cc(-n2nc(C)c3c2CC(C)(C)CC3=O)ccc1C(N)=O` [Compound 3, 2-((2-methoxyethyl)amino)-4-(3,6,6-trimethyl-4-oxo-4,5,6,7-tetrahydro-1H-indazol-1-yl)benzamide], in data set [1], the “Selectivity Index TI (TC50/EC50)” value turned out to be 901 and a half-maximal effect (EC50) was put at 1.3 nM. In addition, in data set [4], the CC50 was found to be 1160 nM.

Consider `Cc1nn(-c2ccc(C(N)=O)c(NCCCO)c2)c2c1C(=O)CC(C)(C)C2` [Compound 6, 2-((3-hydroxypropyl)amino)-4-(3,6,6-trimethyl-4-oxo-4,5,6,7-tetrahydro-1H-indazol-1-yl)benzamide], for which the EC50 in data set [1] is 32 nM.

On to `C=CCNC1=C2C[C@@H](C)C[C@H](OC)[C@H](O)[C@@H](C)/C=C(\C)[C@H](OC(N)=O)[C@@H](OC)/C=C\C=C(/C)C(=O)NC(=CC1=O)C2=O` [17-allylamino-17-demethoxy-geldanamycin], for which the Effect on integration result in data set [5] is reported as “no effect”.

For the compound `CCNC(=O)c1noc(-c2cc(C(C)C)c(O)cc2O)c1-c1ccc(CN2CCOCC2)cc1` [AUY922], the “Suppression of HIV reactivation” value in data set [6] is recorded as “almost completely suppressed”.

Regarding `COCCCNc1cc(-n2nc(C)c3c2CC(C)(C)CC3=O)ccc1C(N)=O` [Compound 7, 2-((3-methoxypropyl)amino)-4-(3,6,6-trimethyl-4-oxo-4,5,6,7-tetrahydro-1H-indazol-1-yl)benzamide], in data set [1], it took 81 nM to reach a half-maximal effect (EC50).

As for `Cc1nn(-c2ccc(C(N)=O)c(NC3CCC(O)CC3)c2)c2c1C(=O)CC(C)(C)C2` (stereo not drawn) [Compound 1, 2-((4-hydroxycyclohexyl)amino)-4-(3,6,6-trimethyl-4-oxo-4,5,6,7-tetrahydro-1H-indazol-1-yl)benzamide], in data set [1], the “Selectivity Index TI (TC50/EC50)” value is recorded as 54 and the EC50 came out at 8.1 nM. Also, the CC50 in data set [4] worked out at 436 nM.

As for `Cc1nn(-c2ccc(C(N)=O)c(NCCOCCOCCN)c2)c2c1C(=O)CC(C)(C)C2` [Compound 5, 2-((2-(2-(2-aminoethoxy)ethoxy)ethyl)amino)-4-(3,6,6-trimethyl-4-oxo-4,5,6,7-tetrahydro-1H-indazol-1-yl)benzamide], it took 2160 nM to reach a half-maximal effect in data set [1] (EC50).
